Laboratory results reported in patent US20160015893A1, “DIRECT PRESSURE-MEDIATED INTRA-BONE DELIVERY SYSTEM FOR CELLULAR THERAPEUTICS” (The United States of America, as represented by the …, priority 2013, published 2016).

Key:
[1] = PET/CT in vivo distribution of radioactivity after IV, IB or intra-arterial administration in swine; parameters: species or system domestic swine (Sus scrofa domesticus)
Method: Animals were heparinzed to an ACT of 300 seconds or greater and were started with deferoxamine IV infusion (5 mg/kg/hr) to chelate any free ^89Zr that may potentially be released from fragmented cells. PET scans were performed using a Gemini TF clinical PET/CT scanner (Philips Medical Systems, Andover, Mass.). Following injection, animals were imaged in 3-dimensional (3D) time-of-flight mode with a spatial resolution of 4.8 mm at the center of the field of view. The images were reconstructed using the default row-action maximum-likelihood algorithm iterative reconstruction, with standard corrections for random, scatter, attenuation, and normalization. Three volumes of interest (VOI) were manually drawn within the swine PET/CT scans. One VOI enclosing the intra-pelvic bone volume near the injection site, another VOI enclosing the extra-pelvic bone volume and the last VOI for the lung volume. The sum of measured activities of the three volumes equals the total injected radioactivity into the swine. Thus, the percent-injected dose (% ID) within each VOI was estimated by dividing each VOI by the sum of the three VOIs and multiplying by 100. The percent-injected dose for each of the three regions is reported herein.

[2] = CT imaging of IB contrast injection (marrow flow, venous drainage, leakage); type: in vivo, domestic swine (Sus scrofa domesticus)
Method: To evaluate flow through the bone marrow cavity, abdominal vessels were identified using iopamidol-370 contrast injected into the distal abdominal aorta via a 5Fr Glidecath (Terumo Medical Corporation, Somerset, N.J.) inserted in the internal carotid artery. To evaluate the anatomy of the veins, iopamidol-370 contrast was injected IB under anesthesia (boluses of 5 or 10 ml at rates of 0.1 to 2.5 ml/s) while scanning with 320-row detector CT (Aquilion ONE™, Toshiba Medical, Japan). Pulmonary artery, carotid artery and intra-marrow pressures were monitored and recorded continuously both during and after injection of contrast media. In select animals, vascular occluders (In Vivo Metric, Healdsburg, Calif.) were placed around the terminal branches of the abdominal aorta to selectively control flow through the internal or external iliac arteries, and around the iliac veins to control venous drainage from the pelvis. […]
To evaluate flow through the marrow and venous drainage, direct intra-bone injection into the hemipelvis with iopamidol-370 contrast was performed under anesthesia with dynamic CT images acquired using a 320-detector row scanner (Aquilion One, Toshiba Medical, Japan). Human CD34+ and swine BM MNCs were labeled with Zirconium-89 (^89Zr), and were then assessed for viability, cell number, and the level of cellular radioactivity.

[3] = Control group, IB injection without cells, pig 32590, after the first hour

^89Zr-deferoxamine [^89Zr-Df]
Extra-pelvic bone VOI (Max) [1, 3]: 91.45 | Extra-pelvic bone VOI (Mean) [1, 3]: 15.32 | Intra-pelvic bone % ID [1, 3]: 33.5 % ID | Intra-pelvic bone VOI (Max) [1, 3]: 338.9 | Intra-pelvic bone VOI (Mean) [1, 3]: 314.42 | Intra-pelvic bone total radioactivity [1, 3]: 1085.85 counts | Lung % ID [1, 3]: 0.0% ID | Lung VOI (Mean) [1, 3]: 0 | Lung total radioactivity [1, 3]: 0 counts | Intra-pelvic bone % ID ([1]; Control group, IB injection without cells, pig 32590, after the first hour, listed as 89Zr—Df): 33.5% ID | Location of radioactivity, fusion PET/CT ([1]; IB injection without cells, 1 hr): radioactivity in the renal pelvises and bladder | Radioactivity within the renal collecting system, ureters and bladder ([1]; IB injection without cells, first hour): 66.5 % ID | Excretion of radioactivity ([1]; IV injection without cells): rapid renal excretion | Retention in the lungs ([1]; IV or IB administration without cells, first hour): no retention

C[C@H](O)C(=O)Nc1c(I)c(C(=O)NC(CO)CO)c(I)c(C(=O)NC(CO)CO)c1I [iopamidol-370 contrast, iopamidol-370]
Contrast distribution on CT ([2]; IB injection at rates exceeding 0.2 ml/s, volumes >10 ml, or by hand): extrabone contrast leakage at the site of injection | Contrast distribution on dynamic CT ([2]; manual sequential hand intra-bone injection of 5 ml aliquots at two sites in the ipsilateral iliac crest): leakage from the initial access site after the first injection as well as immediate drainage into the ipsilateral iliac vein
